ChEMBL document CHEMBL5465560, “Selectivity Literature for EUbOPEN Chemogenomic Library” (2024)

What was measured:
[1] = target: Cyclin-dependent kinase 13 (Homo sapiens, UniProt Q14004); assay: Selectivity interaction (KinomeScan (DiscoverX)) EUB0001049a CDK13; details: at 1 µM
[2] = target: Proto-oncogene tyrosine-protein kinase Src (Homo sapiens, UniProt P12931); assay: Selectivity interaction (Ambit KINOMEscan and KiNATiv profiling in Jurkat cells) EUB0000090b SRC; assay type: cell-based; details: at 1 µM
Proto-oncogene tyrosine-protein kinase Src, sequence (P12931 2-536 limits assumed): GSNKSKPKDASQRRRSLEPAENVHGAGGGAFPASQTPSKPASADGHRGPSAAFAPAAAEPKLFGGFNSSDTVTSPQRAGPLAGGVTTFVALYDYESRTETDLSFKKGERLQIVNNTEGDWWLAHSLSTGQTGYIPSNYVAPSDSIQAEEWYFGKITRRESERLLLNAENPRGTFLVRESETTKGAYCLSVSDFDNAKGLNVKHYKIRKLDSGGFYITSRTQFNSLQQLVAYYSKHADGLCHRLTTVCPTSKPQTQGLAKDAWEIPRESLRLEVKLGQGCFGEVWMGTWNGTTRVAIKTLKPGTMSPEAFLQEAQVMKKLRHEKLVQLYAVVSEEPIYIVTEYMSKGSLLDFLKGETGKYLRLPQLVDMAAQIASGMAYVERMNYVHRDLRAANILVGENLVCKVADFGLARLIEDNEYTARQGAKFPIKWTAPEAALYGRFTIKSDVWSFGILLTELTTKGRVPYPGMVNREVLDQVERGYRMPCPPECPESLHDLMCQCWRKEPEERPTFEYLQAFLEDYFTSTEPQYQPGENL

[3] = target: T1, Dual specificity mitogen-activated protein kinase kinase 7 (Homo sapiens) (UniProt O14733); assay: Selectivity interaction (KinomeScan (DiscoverX)) EUB0001079a MAP2K7; details: at 1 µM
T1 sequence (whole entry): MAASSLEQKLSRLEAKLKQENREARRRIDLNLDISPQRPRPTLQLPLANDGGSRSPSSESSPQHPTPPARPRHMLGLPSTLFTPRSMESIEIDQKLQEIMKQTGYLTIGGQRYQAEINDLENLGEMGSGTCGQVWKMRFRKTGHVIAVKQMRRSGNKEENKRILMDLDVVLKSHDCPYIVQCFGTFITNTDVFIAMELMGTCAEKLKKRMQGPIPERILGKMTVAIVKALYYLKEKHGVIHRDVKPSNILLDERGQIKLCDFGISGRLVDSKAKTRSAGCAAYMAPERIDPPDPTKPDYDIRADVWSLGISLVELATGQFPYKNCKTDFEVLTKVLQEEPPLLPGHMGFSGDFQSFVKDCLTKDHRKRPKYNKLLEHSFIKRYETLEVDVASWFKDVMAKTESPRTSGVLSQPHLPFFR

[4] = target: Receptor-interacting serine/threonine-protein kinase 3 (Homo sapiens) (UniProt Q9Y572); assay: Selectivity interaction (Kinase panel (KiNativ target engagement assay in Jurkat cells)) EUB0001635a RIPK3; assay type: cell-based; details: Selectivity number of off-targets 0.0, Selectivity number of targets 233.0, Source Knowledge https://www.sciencedirect.com/science/article/pii/S2451945619300674?via%3Dihub, at 1 µM
Receptor-interacting serine/threonine-protein kinase 3 (Homo sapiens), sequence (Q9Y572 whole entry, looked up): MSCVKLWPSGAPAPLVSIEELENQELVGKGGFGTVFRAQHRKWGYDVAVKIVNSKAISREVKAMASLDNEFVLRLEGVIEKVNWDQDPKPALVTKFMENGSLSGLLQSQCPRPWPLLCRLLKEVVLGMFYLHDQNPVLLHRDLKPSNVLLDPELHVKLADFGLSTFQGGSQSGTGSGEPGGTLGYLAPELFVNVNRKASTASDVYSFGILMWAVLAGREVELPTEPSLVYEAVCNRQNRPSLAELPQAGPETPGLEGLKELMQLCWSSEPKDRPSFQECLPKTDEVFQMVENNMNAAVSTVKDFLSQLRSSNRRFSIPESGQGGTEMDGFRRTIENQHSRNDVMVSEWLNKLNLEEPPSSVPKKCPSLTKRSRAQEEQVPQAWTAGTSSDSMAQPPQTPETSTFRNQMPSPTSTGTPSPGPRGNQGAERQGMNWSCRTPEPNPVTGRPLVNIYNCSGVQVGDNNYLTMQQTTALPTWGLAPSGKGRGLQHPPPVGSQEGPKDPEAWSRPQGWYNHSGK

[5] = target: Mitogen-activated protein kinase 9 (Homo sapiens, UniProt P45984); assay: Selectivity interaction (KinomeScan (DiscoverX)) EUB0000092b MAPK9; details: at 10 µM
Mitogen-activated protein kinase 9, sequence (P45984 whole entry, looked up): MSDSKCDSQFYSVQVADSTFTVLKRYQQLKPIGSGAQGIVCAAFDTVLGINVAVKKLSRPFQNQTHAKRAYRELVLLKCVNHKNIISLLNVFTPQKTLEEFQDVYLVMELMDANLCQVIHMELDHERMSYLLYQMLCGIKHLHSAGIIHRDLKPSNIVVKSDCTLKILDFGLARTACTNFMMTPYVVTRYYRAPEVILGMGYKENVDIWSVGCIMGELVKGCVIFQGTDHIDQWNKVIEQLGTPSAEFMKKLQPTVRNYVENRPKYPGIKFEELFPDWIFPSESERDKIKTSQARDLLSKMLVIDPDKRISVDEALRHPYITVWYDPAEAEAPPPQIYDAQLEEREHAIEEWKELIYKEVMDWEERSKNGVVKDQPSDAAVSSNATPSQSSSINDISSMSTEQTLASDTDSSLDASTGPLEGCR

[6] = target: T2, Serine/threonine-protein kinase TAO3 (Homo sapiens) (UniProt Q9H2K8); details: at 10 µM
T2 sequence (whole entry): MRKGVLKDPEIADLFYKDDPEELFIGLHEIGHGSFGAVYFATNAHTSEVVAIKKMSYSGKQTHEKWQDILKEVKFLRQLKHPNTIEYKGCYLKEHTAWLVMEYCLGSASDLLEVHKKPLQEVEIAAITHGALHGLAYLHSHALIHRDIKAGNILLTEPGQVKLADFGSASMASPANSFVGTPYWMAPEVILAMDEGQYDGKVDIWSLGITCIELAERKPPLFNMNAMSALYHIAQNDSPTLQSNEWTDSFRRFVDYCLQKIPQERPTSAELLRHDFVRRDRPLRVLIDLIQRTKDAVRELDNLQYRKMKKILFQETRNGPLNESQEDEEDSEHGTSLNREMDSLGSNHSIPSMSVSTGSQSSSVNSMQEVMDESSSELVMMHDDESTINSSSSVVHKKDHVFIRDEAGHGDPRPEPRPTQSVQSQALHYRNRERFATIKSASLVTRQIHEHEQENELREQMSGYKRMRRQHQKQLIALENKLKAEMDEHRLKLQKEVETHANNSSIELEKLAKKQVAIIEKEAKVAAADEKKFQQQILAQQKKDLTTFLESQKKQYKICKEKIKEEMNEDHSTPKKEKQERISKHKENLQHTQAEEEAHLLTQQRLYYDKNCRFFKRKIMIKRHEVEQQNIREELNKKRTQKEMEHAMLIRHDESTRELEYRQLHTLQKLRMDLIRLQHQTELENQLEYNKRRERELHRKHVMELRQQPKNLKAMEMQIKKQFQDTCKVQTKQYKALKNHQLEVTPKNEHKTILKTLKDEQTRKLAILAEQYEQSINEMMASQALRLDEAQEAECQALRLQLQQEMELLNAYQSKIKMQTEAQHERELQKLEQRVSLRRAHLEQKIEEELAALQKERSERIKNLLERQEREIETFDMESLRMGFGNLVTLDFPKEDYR

[7] = target: T3, Serine/threonine-protein kinase PLK4 (Homo sapiens) (UniProt O00444); assay: Selectivity interaction (KinomeScan (DiscoverX)) EUB0000618a PLK4; details: at 10 µM
T3 sequence (whole entry): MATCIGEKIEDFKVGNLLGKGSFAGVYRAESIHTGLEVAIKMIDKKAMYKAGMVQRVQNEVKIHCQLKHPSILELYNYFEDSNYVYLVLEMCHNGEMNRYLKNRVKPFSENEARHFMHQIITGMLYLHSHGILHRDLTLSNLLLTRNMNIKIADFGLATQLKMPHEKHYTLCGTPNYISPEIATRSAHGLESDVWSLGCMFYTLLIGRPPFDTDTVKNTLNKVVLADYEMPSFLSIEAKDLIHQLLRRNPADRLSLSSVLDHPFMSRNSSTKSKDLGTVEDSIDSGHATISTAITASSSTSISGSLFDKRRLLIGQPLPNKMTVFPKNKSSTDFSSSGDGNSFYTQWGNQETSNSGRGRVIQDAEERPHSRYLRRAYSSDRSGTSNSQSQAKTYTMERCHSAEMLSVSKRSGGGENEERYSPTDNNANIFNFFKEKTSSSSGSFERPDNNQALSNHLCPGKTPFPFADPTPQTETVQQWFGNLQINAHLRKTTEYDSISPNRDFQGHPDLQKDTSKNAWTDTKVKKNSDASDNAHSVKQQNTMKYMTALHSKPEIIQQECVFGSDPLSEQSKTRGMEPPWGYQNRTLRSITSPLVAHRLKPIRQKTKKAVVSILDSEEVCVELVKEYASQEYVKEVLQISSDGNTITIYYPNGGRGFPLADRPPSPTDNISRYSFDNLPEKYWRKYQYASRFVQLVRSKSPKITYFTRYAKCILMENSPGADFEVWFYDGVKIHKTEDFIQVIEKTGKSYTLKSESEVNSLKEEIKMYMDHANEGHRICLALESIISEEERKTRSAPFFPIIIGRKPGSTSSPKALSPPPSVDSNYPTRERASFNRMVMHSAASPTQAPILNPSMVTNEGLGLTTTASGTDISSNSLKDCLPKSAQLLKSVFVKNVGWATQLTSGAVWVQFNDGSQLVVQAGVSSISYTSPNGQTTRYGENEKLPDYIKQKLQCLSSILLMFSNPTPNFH

[8] = target: Dual specificity protein kinase CLK2 (Homo sapiens, UniProt P49760); assay: Selectivity interaction (KinomeScan (DiscoverX)) EUB0001619a CLK2; details: at 1 µM
Dual specificity protein kinase CLK2, sequence (P49760 whole entry, looked up): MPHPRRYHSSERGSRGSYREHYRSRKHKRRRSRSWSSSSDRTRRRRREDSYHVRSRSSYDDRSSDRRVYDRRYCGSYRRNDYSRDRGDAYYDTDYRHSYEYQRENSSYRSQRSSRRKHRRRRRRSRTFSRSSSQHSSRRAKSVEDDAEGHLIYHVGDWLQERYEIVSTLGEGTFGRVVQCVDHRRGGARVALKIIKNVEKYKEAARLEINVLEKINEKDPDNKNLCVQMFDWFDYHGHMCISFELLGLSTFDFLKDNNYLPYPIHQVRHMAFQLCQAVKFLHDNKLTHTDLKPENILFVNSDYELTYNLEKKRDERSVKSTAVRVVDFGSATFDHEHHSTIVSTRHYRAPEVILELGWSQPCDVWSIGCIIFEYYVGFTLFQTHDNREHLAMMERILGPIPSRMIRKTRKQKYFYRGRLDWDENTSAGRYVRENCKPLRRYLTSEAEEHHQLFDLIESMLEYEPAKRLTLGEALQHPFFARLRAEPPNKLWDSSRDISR

Cyclin-dependent kinase 13, sequence (Q14004 whole entry, looked up): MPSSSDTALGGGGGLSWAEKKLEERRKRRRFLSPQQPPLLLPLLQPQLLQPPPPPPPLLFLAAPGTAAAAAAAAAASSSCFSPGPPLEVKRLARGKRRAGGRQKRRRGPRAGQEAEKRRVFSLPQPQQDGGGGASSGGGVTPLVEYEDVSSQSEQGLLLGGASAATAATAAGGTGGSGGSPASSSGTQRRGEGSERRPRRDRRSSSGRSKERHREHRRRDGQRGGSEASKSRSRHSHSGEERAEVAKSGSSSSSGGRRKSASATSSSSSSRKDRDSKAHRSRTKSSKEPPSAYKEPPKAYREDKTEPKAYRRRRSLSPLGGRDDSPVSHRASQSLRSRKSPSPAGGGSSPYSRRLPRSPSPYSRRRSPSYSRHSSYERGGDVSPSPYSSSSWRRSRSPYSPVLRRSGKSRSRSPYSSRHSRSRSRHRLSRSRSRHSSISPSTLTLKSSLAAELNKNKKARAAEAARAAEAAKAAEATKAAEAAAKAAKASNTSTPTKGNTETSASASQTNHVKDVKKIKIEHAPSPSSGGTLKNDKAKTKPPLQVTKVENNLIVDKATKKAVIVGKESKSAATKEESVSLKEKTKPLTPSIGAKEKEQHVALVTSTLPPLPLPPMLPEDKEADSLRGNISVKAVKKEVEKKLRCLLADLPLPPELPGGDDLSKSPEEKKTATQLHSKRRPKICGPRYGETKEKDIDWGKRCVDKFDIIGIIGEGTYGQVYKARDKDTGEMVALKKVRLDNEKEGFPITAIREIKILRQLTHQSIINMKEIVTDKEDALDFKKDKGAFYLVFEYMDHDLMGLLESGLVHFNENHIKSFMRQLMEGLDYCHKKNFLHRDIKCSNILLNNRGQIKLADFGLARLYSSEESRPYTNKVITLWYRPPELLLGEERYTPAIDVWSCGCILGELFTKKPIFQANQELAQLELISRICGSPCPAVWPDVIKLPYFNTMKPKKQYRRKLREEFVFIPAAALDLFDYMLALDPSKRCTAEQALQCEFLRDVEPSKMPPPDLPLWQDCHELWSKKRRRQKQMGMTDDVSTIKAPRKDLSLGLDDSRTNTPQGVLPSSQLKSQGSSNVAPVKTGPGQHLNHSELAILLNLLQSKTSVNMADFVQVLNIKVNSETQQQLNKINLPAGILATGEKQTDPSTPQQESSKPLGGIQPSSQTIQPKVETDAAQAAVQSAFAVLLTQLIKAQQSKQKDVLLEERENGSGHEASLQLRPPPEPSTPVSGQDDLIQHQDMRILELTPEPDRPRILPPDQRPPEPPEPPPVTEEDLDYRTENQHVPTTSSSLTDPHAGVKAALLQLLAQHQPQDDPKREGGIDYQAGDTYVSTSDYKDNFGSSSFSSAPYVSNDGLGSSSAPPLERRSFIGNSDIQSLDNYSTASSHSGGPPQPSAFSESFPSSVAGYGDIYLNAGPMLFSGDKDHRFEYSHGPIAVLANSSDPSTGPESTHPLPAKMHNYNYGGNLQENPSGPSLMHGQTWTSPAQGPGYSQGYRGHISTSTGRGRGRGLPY

For `COc1cc(Nc2nc(C)cc(-c3cnn4nc(OC)ccc34)n2)cc(C(F)(F)F)c1`, the % of control [1] was 100%.

With `CN(C)C/C=C/C(=O)Nc1ccc(C(=O)N2CCCC(Nc3ncc(Cl)c(-c4c[nH]c5ccccc45)n3)C2)cc1` (stereo not drawn) the % of control [2] was 90%.

For `Nc1cnc(N2CCc3cc(S(=O)(=O)Nc4c(F)cc(Cl)cc4F)cc(N4CCCC4=O)c32)nc1` [TP-020n], the % of control [3] was 100%.

`C=CC(=O)Nc1ccc(C(=O)Nc2[nH]nc3c2CN(C(=O)N[C@H](CN(C)C)c2ccccc2)C3(C)C)cc1` showed a % of engagement [4] of -0.8%.

Molecule `CCC(=O)N1CCN(c2ccc(-n3c(=O)ccc4cnc5ccc(-c6cnc7ccccc7c6)cc5c43)cc2C(F)(F)F)CC1` has a % of control [5] of 40%.

In the case of `Cc1cc([C@@H](C)Nc2ccccc2C(=O)O)c2nc(N3CCOCC3)cc(=O)n2c1` [AZD-6482], the % of control [6] is reported as 100%.

`O[C@H]1CC[C@H](Nc2ncc3nc(Nc4c(F)cc(F)cc4F)n([C@H]4CCOC4)c3n2)CC1` showed a % of control [7] of 100%.

With `N#Cc1cccc(-c2c[nH]c3ncnc(N4CCOCC4)c23)c1` the % of control [8] was 64%.
